Test results taken from patent publication US5070210A, “Novel ketenimines as intermediates for insecticides” (ICI Americas Inc., priority 1990, dated 1991).

Assays:
Format in all cases: in vivo
[1] = test system: Rice water weevil [Lissorhoptrus oryzophilus (Kuschel)]; assay: Rice water weevil insecticidal test; conditions: topical, μg per weevil; 48 hours
How it was run: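 Female adult weevils (ten per dose) received 1 μl acetone droplets topically on the ventral abdomen, then were held with rice foliage and wet cotton at about 25 °C. Mortality scored at 48 h; LC50 in μg per weevil from dosage-mortality curves, top dose 2.5 μg per weevil.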

[2] = test system: Maize weevil [Sitophilus Zeamais (Motschulsky)]; assay: Maize weevil insecticidal test; conditions: adult weevils, percent in solution; 48 hours
How it was run: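 LC50, in percent of compound in solution, was derived from dosage-mortality curves after 48 h at about 25 °C. Ten adult weevils per container fed on four corn seeds briefly immersed in acetone:water (50:50) solutions of up to 0.01% and dried.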

[3] = test system: Beet Armyworm (Spodoptera exigua); assay: Beet armyworm insecticidal test; conditions: second-instar larvae, percent in solution; five days
How it was run: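 Sugar beet leaves dipped 2–3 s in compound diluted in 50:50 acetone-water, dried, then infested with five second-instar larvae in humid petri dishes. Mortality scored at 5 days; concentrations from 0.1% downward. LC50 from dosage-mortality curves, expressed as percent compound in solution.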

[4] = test system: Aster Leafhopper [Macrosteles fascifrens (Stal)]; assay: Aster leafhopper insecticidal test; conditions: adults/nymphs, percent in solution; 48 hours
How it was run: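 Three ~10 cm oat seedlings per cup were dipped 2-3 seconds in 50-50 acetone-water compound solutions, dried, and caged with ten adult/nymph leafhoppers. Mortality was counted after 48 hours at concentrations from 0.05% downward. LC50, as percent compound in solution, came from dosage-mortality curves.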

[5] = test system: Cabbage Looper [Trichoplusia ni (Hubner)]; assay: Cabbage looper insecticidal test; conditions: second-instar larvae, percent in solution; 3-5 days
How it was run: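 Leaf dip, squash cotyledons, 50-50 acetone-water, top dose 0.1% and lower. 5 second-instar larvae/dish, moist filter paper, high-humidity chamber. Mortality at 3-5 d; LC50 (% in solution) from dosage-mortality curves.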

[6] = test system: Tobacco Budworm [Heliothis virescens (Fabricius)] larvae; assay: Tobacco budworm contact test; conditions: second-instar larvae, percent in solution, 5 days
How it was run: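 Cotton cotyledons dipped 2–3 s in compound in 50-50 acetone-water, dried, then infested with 5 second-instar larvae and held 5 days at high humidity. Mortality scored; LC50 from dosage-mortality curves, expressed as percent compound in solution, concentrations from 0.1% downward.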

[7] = test system: Housefly [Musca domestica]; assay: Housefly insecticidal test; conditions: μg per 25 female flies; mortality after 48 hours
How it was run: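 Dose range started at 100 μg per 25 female flies and went downward. Insects (1-2 days old) contacted a dried acetone/peanut-oil deposit in dishes; LC50 values come from dosage-mortality curves at 48 h.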

[8] = test system: Tobacco Budworm [Heliothis virescens (Fabricius)] eggs; assay: Tobacco budworm egg test; conditions: 2-day old eggs, percent in solution
How it was run: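 LC50 values (percent test compound in the dip solution) were calculated from dosage-mortality curves. Egg patches, 2 days old, were dipped in acetone solutions at concentrations from 0.1% downward and held at 78° F on rearing medium until control larvae hatched and fed.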

CC(C)C(=Nc1ccc2c(c1)OCO2)OCc1cccc(Oc2ccccc2)c1 [Compound 180]
LC50, RWW [1]: > 2.5 µg
LC50, MW [2]: 0.008%
LC50, BAW [3]: 0.005%
LC50, LH [4]: 0.0015%
LC50, CL [5]: 0.0004%
LC50, TBW, C (TBW-C) [6]: 0.003%
LC50, HF [7]: 2 µg
LC50, TBW, E (TBW-E) [8]: 0.03%

CC(C)C(=Nc1ccc(F)c(Cl)c1F)OCc1cccc(Oc2ccc(F)cc2)c1 [Compound 352]
LC50, RWW [1]: > 2.5 µg
LC50, MW [2]: 0.0075%
LC50, BAW [3]: > 0.1%
LC50, LH [4]: 0.0004%
LC50, CL [5]: 0.000065%
LC50, TBW, C (TBW-C) [6]: 0.0004%
LC50, HF [7]: 4.6 µg
LC50, TBW, E (TBW-E) [8]: > 0.1%

CC(C)C(=Nc1ccc(F)c(C(F)(F)F)c1)OCc1ccc(F)c(Oc2ccc(F)cc2)c1 [Compound 277]
LC50, RWW [1]: 0.065 µg
LC50, MW [2]: > 0.01%
LC50, BAW [3]: 0.005%
LC50, LH [4]: 0.0003%
LC50, CL [5]: 0.00001%
LC50, TBW, C (TBW-C) [6]: 0.0005%
LC50, HF [7]: 4 µg
LC50, TBW, E (TBW-E) [8]: 0.013%

CC(C)C(=Nc1ccc(OC(F)(F)F)cc1)OCc1ccc(F)c(Oc2ccc(F)cc2)c1 [Compound 286]
LC50, RWW [1]: 0.09 µg
LC50, MW [2]: 0.0039%
LC50, BAW [3]: 0.0004%
LC50, LH [4]: 0.0006%
LC50, CL [5]: 0.000024%
LC50, TBW, C (TBW-C) [6]: 0.00017%
LC50, HF [7]: 34 µg
LC50, TBW, E (TBW-E) [8]: 0.005%

CC(C)C(=Nc1ccc(F)c(Cl)c1)OCc1cccc(Oc2ccc(F)cc2)c1 [Compound 89]
LC50, RWW [1]: > 2.5 µg
LC50, MW [2]: 0.005%
LC50, BAW [3]: 0.009%
LC50, LH [4]: 0.001%
LC50, CL [5]: 0.00003%
LC50, TBW, C (TBW-C) [6]: 0.0005%
LC50, HF [7]: 5 µg
LC50, TBW, E (TBW-E) [8]: 0.04%

CC(C)C(=Nc1ccc(F)c(Cl)c1)OCc1cccc(Oc2ccccc2)c1 [Compound 81]
LC50, RWW [1]: > 0.5 µg
LC50, MW [2]: 0.005%
LC50, BAW [3]: 0.003%
LC50, LH [4]: 0.0003%
LC50, CL [5]: 0.0006%
LC50, TBW, C (TBW-C) [6]: 0.0009%
LC50, HF [7]: 4 µg
LC50, TBW, E (TBW-E) [8]: 0.007%

CC(C)C(=Nc1ccc(OC(F)(F)F)cc1)OCc1ccc(F)c(Oc2ccc(Cl)cc2)c1 [Compound 323]
LC50, RWW [1]: 0.16 µg
LC50, MW [2]: 0.0075%
LC50, BAW [3]: 0.0025%
LC50, LH [4]: 0.05%
LC50, CL [5]: 0.0006%
LC50, TBW, C (TBW-C) [6]: 0.00065%
LC50, HF [7]: > 100 µg
LC50, TBW, E (TBW-E) [8]: 0.045%

CC(C)C(=Nc1ccc(F)c(Cl)c1)OCc1ccc(F)c(Oc2ccc(F)cc2)c1 [Compound 216]
LC50, RWW [1]: 0.067 µg
LC50, MW [2]: 0.0017%
LC50, BAW [3]: 0.0007%
LC50, LH [4]: 0.00025%
LC50, CL [5]: 0.000007%
LC50, TBW, C (TBW-C) [6]: 0.00018%
LC50, HF [7]: 2 µg
LC50, TBW, E (TBW-E) [8]: 0.005%

CC(C)C(=Nc1ccc(F)c(I)c1)OCc1ccc(F)c(Oc2ccc(F)cc2)c1 [Compound 281]
LC50, RWW [1]: > 2.5 µg
LC50, MW [2]: 0.005%
LC50, BAW [3]: 0.0027%
LC50, CL [5]: 0.00002%
LC50, TBW, C (TBW-C) [6]: 0.00025%
LC50, HF [7]: 5 µg
LC50, TBW, E (TBW-E) [8]: 0.006%

CC(C)C(=Nc1ccc(F)c(F)c1F)OCc1ccc(F)c(Oc2ccc(F)cc2)c1 [Compound 349]
LC50, RWW [1]: > 2.5 µg
LC50, MW [2]: > 0.01%
LC50, BAW [3]: > 0.1%
LC50, CL [5]: 0.00007%
LC50, TBW, C (TBW-C) [6]: 0.0004%
LC50, HF [7]: 4.9 µg
LC50, TBW, E (TBW-E) [8]: > 0.1%

CC(C)C(=Nc1ccc(Cl)cc1)OCc1cccc(Oc2ccc(Cl)cc2)c1 [Compound 269]
LC50, RWW [1]: > 2.5 µg
LC50, MW [2]: > 0.01%
LC50, BAW [3]: 0.0024%
LC50, LH [4]: 0.003%
LC50, CL [5]: 0.0003%
LC50, TBW, C (TBW-C) [6]: 0.001%
LC50, HF [7]: 25 µg
LC50, TBW, E (TBW-E) [8]: 0.04%

CC(C)C(=Nc1ccc(C(F)(F)F)cc1)OCc1ccc(F)c(Oc2ccccc2)c1 [Compound 337]
LC50, RWW [1]: 0.067 µg
LC50, MW [2]: 0.0053%
LC50, BAW [3]: 0.0005%
LC50, CL [5]: 0.0007%
LC50, TBW, C (TBW-C) [6]: 0.0005%
LC50, HF [7]: 21 µg
LC50, TBW, E (TBW-E) [8]: 0.008%

CC(C)C(=Nc1ccc2c(c1)OCO2)OCc1ccc(F)c(Oc2ccccc2)c1 [Compound 181]
LC50, RWW [1]: > 2.5 µg
LC50, MW [2]: 0.005%
LC50, BAW [3]: 0.001%
LC50, CL [5]: 0.0005%
LC50, TBW, C (TBW-C) [6]: 0.001%
LC50, HF [7]: 25 µg
LC50, TBW, E (TBW-E) [8]: 0.01%

CC(C)C(=Nc1ccc(F)c(F)c1)OCc1ccc(F)c(Oc2ccc(F)cc2)c1 [Compound 278]
LC50, RWW [1]: 0.085 µg
LC50, MW [2]: 0.0063%
LC50, BAW [3]: 0.0012%
LC50, LH [4]: 0.0003%
LC50, CL [5]: 0.00002%
LC50, TBW, C (TBW-C) [6]: 0.00026%
LC50, HF [7]: 3 µg
LC50, TBW, E (TBW-E) [8]: 0.008%

CC(C)C(=Nc1ccc(F)c(Cl)c1)OCc1ccc(F)c(Oc2ccc(Cl)cc2)c1 [Compound 267]
LC50, RWW [1]: 0.11 µg
LC50, MW [2]: 0.0027%
LC50, BAW [3]: 0.0012%
LC50, LH [4]: 0.002%
LC50, CL [5]: 0.00008%
LC50, TBW, C (TBW-C) [6]: 0.0003%
LC50, HF [7]: 8.4 µg
LC50, TBW, E (TBW-E) [8]: 0.015%

CC(C)C(=Nc1ccc(F)c(Cl)c1)OCc1ccc(F)c(Oc2ccccc2)c1 [Compound 82]
LC50, RWW [1]: 0.086 µg
LC50, BAW [3]: 0.0025%
LC50, LH [4]: 0.0001%
LC50, CL [5]: 0.00018%
LC50, TBW, C (TBW-C) [6]: 0.0008%
LC50, HF [7]: 2.5 µg
LC50, TBW, E (TBW-E) [8]: 0.006%

CC(C)C(=Nc1cc(F)cc(F)c1)OCc1cccc(Oc2ccccc2)c1 [Compound 55]
LC50, RWW [1]: > 2.5 µg
LC50, BAW [3]: 0.006%
LC50, LH [4]: 0.0005%
LC50, CL [5]: 0.0017%
LC50, TBW, C (TBW-C) [6]: 0.004%
LC50, HF [7]: > 100 µg
LC50, TBW, E (TBW-E) [8]: 0.06%

CC(C)C(=Nc1ccc(F)c(F)c1)OCc1ccc(F)c(Oc2ccccc2)c1 [Compound 336]
LC50, RWW [1]: > 2.5 µg
LC50, MW [2]: 0.0091%
LC50, BAW [3]: 0.001%
LC50, CL [5]: 0.00017%
LC50, TBW, C (TBW-C) [6]: 0.0005%
LC50, HF [7]: 3.6 µg
LC50, TBW, E (TBW-E) [8]: 0.02%
